One assay concerns the target T1, c-ABL (Homo sapiens, UniProt P00519).
T1 construct: endogenous in cells; host or cells: K562 (ATCC)
The experiment in a line: c-ABL degradation in K562 cells by immunoblot. The assay is classed as cell-based. To be noted: for decrease (degradation) of c-ABL: at 1 μM PROTAC; for concentration from which degradation of c-ABL is observed: 24 hrs, immunoblot. On the procedure: (§1) K562 cells were obtained from ATCC and were grown at 37° C., 5% CO2 in Iscove's Modified Dulbecco's Media (IMDM) supplemented with 10% FBS, 100 U/mL penicillin and 100 μg/mL streptomycin. HEK293 and SK-BR-3 cells were obtained from ATCC and were grown at 37° C., 5% CO2 in Dulbecco's Modified Eagle's Media (DMEM) supplemented with 10% FBS, 100 U/mL penicillin and 100 μg/mL streptomycin.
(§2) K562 cells (1-1.5×10^6) were treated for 24 hours with the indicated compounds solubilized in DMSO. The cells were collected at 300 g for 3 min. […] The total protein concentrations were determined by Pierce BCA Protein Assay and […] of protein was loaded onto 10% Tris-Glycine gels. After standard gel electrophoresis, the separated proteins were transferred to nitrocellulose by wet transfer. The immunoblots were then processed by standard procedures and incubated with the respective antibodies. Band intensities were quantified by Bio-Rad's Image Lab software.
For orientation: In western blotting, separated proteins are transferred to a membrane and probed.

A further assay addresses T2, BCR-ABL (Homo sapiens, UniProt P00519+P11274).
T2 construct: endogenous in cells; host or cells: K562 (ATCC)
The experiment in a line: BCR-ABL degradation in K562 cells by immunoblot. The assay is classed as cell-based. On the procedure:
as §1, §2

Assay [1] concerns the target T3, non-phosphorylated c-ABL kinase domain (Homo sapiens, UniProt P00519).
T3 construct: phosphorylated and non-phosphorylated c-ABL kinase domain; purchased DiscoverRx Corporation (KinomeScan platform)
T3 sequence (P00519 242-493 limits assumed): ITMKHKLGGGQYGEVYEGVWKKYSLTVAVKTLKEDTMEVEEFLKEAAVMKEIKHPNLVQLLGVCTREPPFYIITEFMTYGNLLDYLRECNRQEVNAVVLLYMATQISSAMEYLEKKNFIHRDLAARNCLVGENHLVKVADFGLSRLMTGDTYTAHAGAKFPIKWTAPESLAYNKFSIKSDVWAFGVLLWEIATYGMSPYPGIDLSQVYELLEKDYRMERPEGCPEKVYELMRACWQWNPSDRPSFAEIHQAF
The assay can be described thus: KinomeScan in vitro binding affinity (Kd), non-phosphorylated c-ABL kinase domain. Conditions: Table 2, read-out: ABL (non-phosphorylated). On the procedure: (§3) PROTAC in vitro binding affinities (Kd) to phosphorylated and non-phosphorylated c-ABL kinase domain were determined using the KinomeScan platform (DiscoverRx Corporation). The compounds were solubilized in DMSO and sent to DiscoverRx Corporation as a 10 μM stock solution.

In assay [2] the target is T4, phosphorylated c-ABL kinase domain (Homo sapiens, UniProt P00519).
T4 construct: phosphorylated and non-phosphorylated c-ABL kinase domain; purchased DiscoverRx Corporation (KinomeScan platform)
T4 sequence (P00519 242-493 limits assumed): T3 sequence (P00519 242-493 limits assumed)
The assay can be described thus: KinomeScan in vitro binding affinity (Kd), phosphorylated c-ABL kinase domain. Conditions: Table 2, read-out: ABL (phosphorylated). On the procedure:
as §3

Where only a bound is given, the exact number is not on record here.

T1 sequence (P00519 whole entry): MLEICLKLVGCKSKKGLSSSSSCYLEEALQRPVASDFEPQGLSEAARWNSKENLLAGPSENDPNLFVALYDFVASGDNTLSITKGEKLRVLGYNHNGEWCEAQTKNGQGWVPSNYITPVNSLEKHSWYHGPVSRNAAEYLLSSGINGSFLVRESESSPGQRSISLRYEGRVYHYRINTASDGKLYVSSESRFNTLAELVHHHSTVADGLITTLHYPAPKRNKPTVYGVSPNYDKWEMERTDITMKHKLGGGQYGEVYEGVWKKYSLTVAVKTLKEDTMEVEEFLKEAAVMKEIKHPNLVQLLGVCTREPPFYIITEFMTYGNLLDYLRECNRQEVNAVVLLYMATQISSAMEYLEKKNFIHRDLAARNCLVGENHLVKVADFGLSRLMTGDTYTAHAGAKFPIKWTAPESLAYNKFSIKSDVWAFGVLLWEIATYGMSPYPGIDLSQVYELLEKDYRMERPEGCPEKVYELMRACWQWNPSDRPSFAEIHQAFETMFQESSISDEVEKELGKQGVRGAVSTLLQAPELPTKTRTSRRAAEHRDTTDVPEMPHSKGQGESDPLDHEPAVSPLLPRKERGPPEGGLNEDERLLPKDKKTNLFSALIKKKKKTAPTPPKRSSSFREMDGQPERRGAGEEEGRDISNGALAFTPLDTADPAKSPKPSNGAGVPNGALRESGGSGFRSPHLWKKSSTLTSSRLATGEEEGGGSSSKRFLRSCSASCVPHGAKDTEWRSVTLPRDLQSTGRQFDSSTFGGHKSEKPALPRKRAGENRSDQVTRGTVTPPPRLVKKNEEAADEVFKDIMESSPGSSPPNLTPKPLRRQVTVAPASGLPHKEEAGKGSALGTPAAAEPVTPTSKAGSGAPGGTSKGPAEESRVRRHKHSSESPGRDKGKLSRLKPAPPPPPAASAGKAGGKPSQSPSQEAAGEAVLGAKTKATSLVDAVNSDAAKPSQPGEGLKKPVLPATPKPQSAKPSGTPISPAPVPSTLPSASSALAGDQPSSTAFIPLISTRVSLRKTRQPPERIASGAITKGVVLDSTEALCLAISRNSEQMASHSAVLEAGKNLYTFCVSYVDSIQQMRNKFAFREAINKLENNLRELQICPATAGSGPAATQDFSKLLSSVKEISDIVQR
T2 sequence (P11274+P00519 fused, change not shown): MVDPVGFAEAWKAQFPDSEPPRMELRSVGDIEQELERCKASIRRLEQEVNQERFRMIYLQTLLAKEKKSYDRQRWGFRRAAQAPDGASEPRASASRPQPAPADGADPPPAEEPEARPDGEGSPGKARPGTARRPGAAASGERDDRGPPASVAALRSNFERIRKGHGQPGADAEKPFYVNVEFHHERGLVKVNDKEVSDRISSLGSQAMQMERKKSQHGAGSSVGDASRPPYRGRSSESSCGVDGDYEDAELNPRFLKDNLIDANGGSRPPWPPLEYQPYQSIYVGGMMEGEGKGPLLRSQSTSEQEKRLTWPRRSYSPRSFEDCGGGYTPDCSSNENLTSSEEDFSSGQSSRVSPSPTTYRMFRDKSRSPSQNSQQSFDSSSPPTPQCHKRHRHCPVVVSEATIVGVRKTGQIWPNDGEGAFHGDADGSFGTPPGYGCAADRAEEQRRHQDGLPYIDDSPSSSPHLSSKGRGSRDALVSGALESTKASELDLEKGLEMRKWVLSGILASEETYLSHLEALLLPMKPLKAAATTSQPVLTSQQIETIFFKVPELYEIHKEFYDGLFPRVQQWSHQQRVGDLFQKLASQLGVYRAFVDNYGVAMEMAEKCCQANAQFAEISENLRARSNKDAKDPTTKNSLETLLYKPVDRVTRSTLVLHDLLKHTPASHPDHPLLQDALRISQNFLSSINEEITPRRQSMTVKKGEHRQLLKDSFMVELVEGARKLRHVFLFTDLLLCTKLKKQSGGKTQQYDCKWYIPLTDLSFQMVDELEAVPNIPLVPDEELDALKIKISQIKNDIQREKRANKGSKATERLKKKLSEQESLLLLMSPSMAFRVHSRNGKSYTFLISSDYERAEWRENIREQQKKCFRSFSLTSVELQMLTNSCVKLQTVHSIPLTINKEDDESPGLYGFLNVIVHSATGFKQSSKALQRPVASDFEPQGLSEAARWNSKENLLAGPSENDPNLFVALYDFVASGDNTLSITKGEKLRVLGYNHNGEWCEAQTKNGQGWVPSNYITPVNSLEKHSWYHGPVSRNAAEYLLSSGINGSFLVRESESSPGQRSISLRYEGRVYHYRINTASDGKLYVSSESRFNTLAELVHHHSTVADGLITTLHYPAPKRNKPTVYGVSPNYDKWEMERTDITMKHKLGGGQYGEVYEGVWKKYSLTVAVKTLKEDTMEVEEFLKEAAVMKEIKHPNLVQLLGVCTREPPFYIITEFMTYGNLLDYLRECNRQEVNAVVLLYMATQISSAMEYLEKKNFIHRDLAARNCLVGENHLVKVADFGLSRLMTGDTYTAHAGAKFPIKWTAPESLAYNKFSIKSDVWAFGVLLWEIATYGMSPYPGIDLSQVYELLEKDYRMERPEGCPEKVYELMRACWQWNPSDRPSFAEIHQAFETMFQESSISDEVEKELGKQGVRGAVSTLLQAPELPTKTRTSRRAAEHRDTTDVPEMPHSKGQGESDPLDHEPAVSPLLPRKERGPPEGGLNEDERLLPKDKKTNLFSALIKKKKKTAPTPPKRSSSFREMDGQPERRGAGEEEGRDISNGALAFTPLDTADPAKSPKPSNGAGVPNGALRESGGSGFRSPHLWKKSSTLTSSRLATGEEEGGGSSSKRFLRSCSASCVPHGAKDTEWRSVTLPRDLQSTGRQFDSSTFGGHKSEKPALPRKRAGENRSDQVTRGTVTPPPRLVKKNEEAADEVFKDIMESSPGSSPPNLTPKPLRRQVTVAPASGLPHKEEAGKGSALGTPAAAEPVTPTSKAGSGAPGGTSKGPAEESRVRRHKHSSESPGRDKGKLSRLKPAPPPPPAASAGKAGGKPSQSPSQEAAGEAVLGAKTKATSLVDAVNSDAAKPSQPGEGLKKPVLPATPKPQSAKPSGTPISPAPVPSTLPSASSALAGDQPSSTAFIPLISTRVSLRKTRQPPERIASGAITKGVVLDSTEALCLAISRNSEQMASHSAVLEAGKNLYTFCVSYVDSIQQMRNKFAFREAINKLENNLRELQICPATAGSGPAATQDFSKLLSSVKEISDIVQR
T2 sequence (Q96SW2 whole entry, change not shown, further chain): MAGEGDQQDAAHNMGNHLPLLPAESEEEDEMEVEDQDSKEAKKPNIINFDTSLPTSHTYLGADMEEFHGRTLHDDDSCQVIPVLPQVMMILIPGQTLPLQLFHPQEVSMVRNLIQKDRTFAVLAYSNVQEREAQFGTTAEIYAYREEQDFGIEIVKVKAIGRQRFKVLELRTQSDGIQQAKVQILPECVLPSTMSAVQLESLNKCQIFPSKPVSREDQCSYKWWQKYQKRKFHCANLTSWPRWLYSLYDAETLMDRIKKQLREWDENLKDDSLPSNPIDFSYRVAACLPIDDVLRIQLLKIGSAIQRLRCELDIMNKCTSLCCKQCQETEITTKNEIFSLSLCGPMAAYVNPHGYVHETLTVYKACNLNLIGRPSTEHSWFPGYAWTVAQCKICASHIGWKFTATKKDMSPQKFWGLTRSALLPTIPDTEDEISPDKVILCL
T2 sequence (Q16531 whole entry partner): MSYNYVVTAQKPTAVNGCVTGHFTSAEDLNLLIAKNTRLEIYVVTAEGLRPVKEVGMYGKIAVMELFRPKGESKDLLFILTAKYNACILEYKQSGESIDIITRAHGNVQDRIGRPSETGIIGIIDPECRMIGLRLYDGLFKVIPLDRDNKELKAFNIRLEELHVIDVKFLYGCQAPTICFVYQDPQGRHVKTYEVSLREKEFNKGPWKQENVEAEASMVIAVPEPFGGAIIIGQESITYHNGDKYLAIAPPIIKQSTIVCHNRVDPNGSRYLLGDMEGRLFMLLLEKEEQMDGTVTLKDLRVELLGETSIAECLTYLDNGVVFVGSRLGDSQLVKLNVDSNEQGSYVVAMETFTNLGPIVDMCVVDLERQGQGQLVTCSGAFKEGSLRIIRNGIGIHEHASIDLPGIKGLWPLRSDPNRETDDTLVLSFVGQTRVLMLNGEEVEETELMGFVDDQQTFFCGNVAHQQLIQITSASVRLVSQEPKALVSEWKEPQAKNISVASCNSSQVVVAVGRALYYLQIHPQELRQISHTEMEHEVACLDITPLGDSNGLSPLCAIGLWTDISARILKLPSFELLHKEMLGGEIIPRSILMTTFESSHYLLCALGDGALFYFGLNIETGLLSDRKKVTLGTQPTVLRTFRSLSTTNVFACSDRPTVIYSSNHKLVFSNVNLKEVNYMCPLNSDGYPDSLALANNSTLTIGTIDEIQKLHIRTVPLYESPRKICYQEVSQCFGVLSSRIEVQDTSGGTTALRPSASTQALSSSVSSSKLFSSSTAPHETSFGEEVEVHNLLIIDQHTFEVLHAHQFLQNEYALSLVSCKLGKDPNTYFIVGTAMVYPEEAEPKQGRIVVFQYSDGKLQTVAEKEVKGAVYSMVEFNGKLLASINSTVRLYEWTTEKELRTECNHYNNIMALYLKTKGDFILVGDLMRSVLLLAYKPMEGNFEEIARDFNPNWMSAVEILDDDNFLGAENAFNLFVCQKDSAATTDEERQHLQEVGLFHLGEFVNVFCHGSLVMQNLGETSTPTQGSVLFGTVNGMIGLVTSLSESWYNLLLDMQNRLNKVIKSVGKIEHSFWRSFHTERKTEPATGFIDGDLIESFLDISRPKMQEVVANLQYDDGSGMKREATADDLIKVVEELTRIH

In the case of “6-(2-(2-((6-(4-(3-((3-cyano-4-((2,4-dichloro-5-methoxyphenyl)amino)-6-methoxyquinolin-7-yl)oxy)propyl)piperazin-1-yl)hexyl)oxy)ethoxy)ethoxy)-N-(2-(2,6-dioxopiperidin-3-yl)-1,3-dioxoisoindolin-4-yl)hexanamide [BOS-6-2-2-6-CRBN]”, the c-ABL degradation at c-ABL (at 2.5 μM) was greater than 90%. Moreover, the BCR-ABL degradation on BCR-ABL (at 2.5 μM) is recorded as greater than 80%.
In the case of `Cc1nc(Nc2ncc(C(=O)Nc3c(C)cccc3Cl)s2)cc(N2CCN(CCCCCCOCCOCCOCCCCCC(=O)Nc3cccc4c3C(=O)N(C3CCC(=O)NC3=O)C4=O)CC2)n1` (centres unmarked) [DAS-6-2-2-6-CRBN, N-(2-chloro-6-methylphenyl)-2-((6-(4-(6-(2-(2-((6-((2-(2,6-dioxopiperidin-3-yl)-1,3-dioxoisoindolin-4-yl)amino)-6-oxohexyl)oxy)ethoxy)ethoxy)hexyl)piperazin-1-yl)-2-methylpyrimidin-4-yl)amino)thiazole-5-carboxamide], the Kd in assay [1] turned out to be 0.6 nM. The “decrease (degradation) of c-ABL” value at c-ABL is recorded as greater than 85%. Besides, the BCR-ABL degradation on BCR-ABL (at 1 μM PROTAC) is greater than 60%.
For `Cc1nc(Nc2ncc(C(=O)Nc3c(C)cccc3Cl)s2)cc(N2CCN(CCCCCCOCCOCCOCCCCCC(=O)N[C@H](C(=O)N3C[C@H](O)C[C@H]3C(=O)NCc3ccc(-c4scnc4C)cc3)C(C)(C)C)CC2)n1` [DAS-6-2-2-6-VHL, N-(2-chloro-6-methylphenyl)-2-((6-(4-((S)-3-((2S,4R)-4-hydroxy-2-((4-(4-methylthiazol-5-yl)benzyl)carbamoyl)pyrrolidine-1-carbonyl)-2,2-dimethyl-5-oxo-11,14,17-trioxa-4-azatricosan-23-yl)piperazin-1-yl)-2-methylpyrimidin-4-yl)amino)thiazole-5-carboxamide], in assay [1], the Kd was determined as 0.92 nM. For the same compound, the Kd in assay [2] was found to be 0.47 nM. Moreover, at c-ABL, the “concentration from which degradation of c-ABL is observed” value (shortened to “concentration from which degradation”) was no less than 1 µM and the “decrease (degradation) of c-ABL” value is recorded as greater than 65%.
Turning to `Cc1nc(Nc2ncc(C(=O)Nc3c(C)cccc3Cl)s2)cc(N2CCN(CCCCCCOCCOCC(=O)N[C@H](C(=O)N3C[C@H](O)C[C@H]3C(=O)NCc3ccc(-c4scnc4C)cc3)C(C)(C)C)CC2)n1` [DAS-6-2-2-VHL, N-(2-chloro-6-methylphenyl)-2-((6-(4-(6-(2-(2-(((S)-1-((2S,4R)-4-hydroxy-2-((4-(4-methylthiazol-5-yl)benzyl)carbamoyl)pyrrolidin-1-yl)-3,3-dimethyl-1-oxobutan-2-yl)amino)-2-oxoethoxy)ethoxy)hexyl)piperazin-1-yl)-2-methylpyrimidin-4-yl)amino)thiazole-5-carboxamide], the “concentration from which degradation” value at c-ABL was no less than 1 µM.
With `Cc1nc(Nc2ncc(C(=O)Nc3c(C)cccc3Cl)s2)cc(N2CCN(CCCCCCOCCCCCOCCCCCC(=O)N[C@H](C(=O)N3C[C@H](O)C[C@H]3C(=O)NCc3ccc(-c4scnc4C)cc3)C(C)(C)C)CC2)n1` [DAS-6-5-6-VHL, N-(2-chloro-6-methylphenyl)-2-((6-(4-(6-((5-((6-(((S)-1-((2S,4R)-4-hydroxy-2-((4-(4-methylthiazol-5-yl)benzyl)carbamoyl)pyrrolidin-1-yl)-3,3-dimethyl-1-oxobutan-2-yl)amino)-6-oxohexyl)oxy)pentyl)oxy)hexyl)piperazin-1-yl)-2-methylpyrimidin-4-yl)amino)thiazole-5-carboxamide], the Kd in assay [1] turned out to be 2.6 nM; in assay [2], 1.3 nM. Further, the “concentration from which degradation” value on c-ABL was no less than 1 µM.
On to `Cc1nc(Nc2ncc(C(=O)Nc3c(C)cccc3Cl)s2)cc(N2CCN(CCCCCCOCCOCCOCCOCCOCCOCC(=O)N[C@H](C(=O)N3C[C@H](O)C[C@H]3C(=O)NCc3ccc(-c4scnc4C)cc3)C(C)(C)C)CC2)n1` [DAS-6-(2-)5-2-VHL, N-(2-chloro-6-methylphenyl)-2-((6-(4-((S)-3-((2S,4R)-4-hydroxy-2-((4-(4-methylthiazol-5-yl)benzyl)carbamoyl)pyrrolidine-1-carbonyl)-2,2-dimethyl-5-oxo-7,10,13,16,19,22-hexaoxa-4-azaoctacosan-28-yl)piperazin-1-yl)-2-methylpyrimidin-4-yl)amino)thiazole-5-carboxamide], for which the “concentration from which degradation” value on c-ABL is no less than 1 µM.
As to `Cc1ccc(NC(=O)c2ccc(CN3CCN(CCCCCCOCCCCCOCCCCCC(=O)N[C@H](C(=O)N4C[C@H](O)C[C@H]4C(=O)NCc4ccc(-c5scnc5C)cc4)C(C)(C)C)CC3)cc2)cc1Nc1nccc(-c2cccnc2)n1` [IMA-6-5-6-VHL, (2S,4R)-1-((S)-3,3-dimethyl-2-(6-((5-((6-(4-(4-((4-methyl-3-((4-(pyridin-3-yl)pyrimidin-2-yl)amino)phenyl)carbamoyl)benzyl)piperazin-1-yl)hexyl)oxy)pentyl)oxy)hexanamido)butanoyl)-4-hydroxy-N-(4-(4-methylthiazol-5-yl)benzyl)pyrrolidine-2-carboxamide], the Kd in assay [1] amounted to 19 nM; in assay [2] it was 46 nM.
On to `Cc1ccc(NC(=O)c2ccc(CN3CCN(CCCCCCOCCOCCOCCOCCOCCOCC(=O)Nc4cccc5c4C(=O)N(C4CCC(=O)NC4=O)C5=O)CC3)cc2)cc1Nc1nccc(-c2cccnc2)n1` (centres unmarked) [IMA-6-(2-)5-2-CRBN, N-(2-(2,6-dioxopiperidin-3-yl)-1,3-dioxoisoindolin-4-yl)-24-(4-(4-((4-methyl-3-((4-(pyridin-3-yl)pyrimidin-2-yl)amino)phenyl)carbamoyl)benzyl)piperazin-1-yl)-3,6,9,12,15,18-hexaoxatetracosanamide], for which the Kd is 3 nM in assay [1] and 84 nM in assay [2].
As for `Cc1ccc(NC(=O)c2ccc(CN3CCN(CCCCCCOCCOCCOCCOCCOCCOCC(=O)N[C@H](C(=O)N4C[C@H](O)C[C@H]4C(=O)NCc4ccc(-c5scnc5C)cc4)C(C)(C)C)CC3)cc2)cc1Nc1nccc(-c2cccnc2)n1` [IMA-6-(2-)5-2-VHL, (2S,4R)-1-((S)-2-(tert-butyl)-27-(4-(4-((4-methyl-3-((4-(pyridin-3-yl)pyrimidin-2-yl)amino)phenyl)carbamoyl)benzyl)piperazin-1-yl)-4-oxo-6,9,12,15,18,21-hexaoxa-3-azaheptacosanoyl)-4-hydroxy-N-(4-(4-methylthiazol-5-yl)benzyl)pyrrolidine-2-carboxamide], the Kd in assay [1] is 1.7 nM; in assay [2], 35 nM.
